Assays:
[1] = pKa of the neat neutralizer by titration with hydrochloric acid; assay type: physicochemical; conditions: neat amine; for pKa: titration; for pK1: first pKa by titration; for pK2: second pKa by titration
Protocol: pKa. pKa is measured by titration with a hydrochloric acid titrant solution, using an automated titrator that monitors pH with a combination electrode. The titrator plots pH vs. volume of titrant added, and first determines the titration endpoint(s) of each amine as the volume of titrant added at the inflection point(s) of the curve. The titrator reports the amine pKa value as the pH value at which one-half of the endpoint titrant volume has been delivered, or in the case of multiple endpoints, multiple pKa values are determined using the midpoints between titration endpoints. The inventive amines tested in this example each have two pKa values, due to the two different amine groups in each compound's respective molecular structure.

[2] = Volatile organic content (VOC) of the neat amine, modified EPA Method 24; assay type: physicochemical; conditions: for VOC / Volatility by the modified EPA Test Method 24: neat amine; for VOC: 1 h at 105-110° C., percent weight loss
Protocol: Volatile Organic Content (VOC). VOC is measured following EPA Method 24. The amines are weighed in a pan and kept in an oven for 1 h at 105-110° C. The percent weight loss is reported as the VOC, corrected for the water content in the sample which can be measured by Karl Fisher Titration.

pKa [1] | VOC contribution [2] | VOC [2] | pK1 [1] | pK1 ([1]; listed as TA-AcyHM) | pK2 [1] | pK2 ([1]; listed as TA-AcyHM) | Volatility by the modified EPA Test Method 24 [2] | SMILES
– | essentially zero VOC contribution | 3.8% | 9.7 | pK1 9.7 | 4.5 | pK2 4.5 | 3.8% | NC1(CNC(CO)(CO)CO)CCCCC1 [TA-ACyHM, 2-((1-aminocyclohexyl)methylamino)-2-(hydroxymethyl)propane-1,3-diol]
9 | – | 21% | – | – | – | – | – | CCCCN(CCO)CCO [NBDA, N-Butyl-diethanolamine, reference compound]
– | – | 3.9% | – | – | – | – | 3.9% | CC(C)(N)CNC(CO)(CO)CO [TA-AMP, 2-(2-Amino-2-methylpropylamino)-2-(hydroxymethyl)propane-1,3-diol]

Further lines, the molecule ahead of its results:

SMILES | pKa [1] | VOC contribution [2] | VOC [2] | pK1 [1] | pK1 ([1]; listed as TA-AcyHM) | pK2 [1] | pK2 ([1]; listed as TA-AcyHM) | Volatility by the modified EPA Test Method 24 [2]
CC(C)(N)CO [AMP, 2-Amino-2-methyl-1-propanol, reference compound] | 9.7 | 100% | 100% | – | – | – | – | –
CC(C)(N)CNC(CO)(CO)CO [2-(2-amino-2-methylpropylamino)-2-(hydroxymethyl)propane-1,3-diol] | – | 3.9% | – | – | – | – | – | –
CCC(N)(CO)CO [AEPD, 2-Amino-2-ethyl-1,3-propane-diol, reference compound] | 8.8 | – | 19% | – | – | – | – | –

From patent publication US7939589B2, “Polyhydroxy-diamines as low odor, low VOC multi-functional additives for paints and coatings” (Angus Chemical Company, priority 2009, dated 2011)
